Literature values in US20050107425A1, “Treatment of attention defecit hyperactivity disorder” (Pfizer Inc, priority 2002, published 2005).
One block for each compound: values may come before it.

Legend:
α7 nAChR = α7 nAChR (Homo sapiens, UniProt P36544)
[1] = clinical trials of Alzheimer's disease and attention-deficit disorders
5HT3R = molecular target: T1, 5HT3R (Homo sapiens, UniProt P46098)
T1 sequence (P46098 24-478): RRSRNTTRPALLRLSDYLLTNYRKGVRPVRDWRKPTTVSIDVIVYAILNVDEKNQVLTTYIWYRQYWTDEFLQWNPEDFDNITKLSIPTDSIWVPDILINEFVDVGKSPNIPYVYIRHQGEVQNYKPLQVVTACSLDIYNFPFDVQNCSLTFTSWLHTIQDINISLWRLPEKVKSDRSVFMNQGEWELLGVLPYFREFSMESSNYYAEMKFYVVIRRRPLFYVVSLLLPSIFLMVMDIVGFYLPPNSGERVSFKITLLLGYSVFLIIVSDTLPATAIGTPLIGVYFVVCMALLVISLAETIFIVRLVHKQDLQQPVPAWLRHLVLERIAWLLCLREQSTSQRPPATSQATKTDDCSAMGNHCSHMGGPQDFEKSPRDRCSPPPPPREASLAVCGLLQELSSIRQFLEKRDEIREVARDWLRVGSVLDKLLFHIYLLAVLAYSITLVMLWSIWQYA

Sequence of α7 nAChR (P36544 23-502): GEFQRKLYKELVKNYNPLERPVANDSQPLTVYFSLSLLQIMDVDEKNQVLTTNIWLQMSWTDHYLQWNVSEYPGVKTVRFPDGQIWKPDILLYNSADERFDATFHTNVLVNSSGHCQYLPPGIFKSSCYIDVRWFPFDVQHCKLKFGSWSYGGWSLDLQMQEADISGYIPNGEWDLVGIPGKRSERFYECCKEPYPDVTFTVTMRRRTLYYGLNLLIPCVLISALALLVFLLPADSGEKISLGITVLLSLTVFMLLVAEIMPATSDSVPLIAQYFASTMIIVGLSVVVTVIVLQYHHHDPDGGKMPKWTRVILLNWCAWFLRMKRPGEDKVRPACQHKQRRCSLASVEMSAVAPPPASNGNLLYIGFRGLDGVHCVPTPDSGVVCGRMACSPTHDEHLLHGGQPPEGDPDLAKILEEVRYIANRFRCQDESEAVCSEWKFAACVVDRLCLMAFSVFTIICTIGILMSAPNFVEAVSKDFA

activity at the α7 nAChR (α7 nAChR): little activity
Structure (SMILES): Cc1nccn1CC1CCc2c(c3ccccc3n2C)C1=O (stereo not drawn) [Ondansetron]

Structure (SMILES): Cc1cc([C@@H]2CCCN2C)on1 [ABT-418]
cognition and attention in clinical trials [1]: improves cognition and attention

activity at the 5HT3R (5HT3R): little activity
Structure (SMILES): COc1ccc(/C=C2\CCCN=C2c2cccnc2)c(OC)c1 [GTS-21]
